{"source": "paper PMC12500856", "about": "(Nature Communications, 2025)", "molecules": {"B1": {"name": "NmYgdH (Neisseria meningitidis MC58) (protein)", "chain": "MENTNRVPEQARYDAERRQADEALAGVFPAVSIFGSARTPQNHADYAFACRLARRLSDSGIAVISGGGPGIMEAANKGAFAGKSVSVGLNIVLPHEQKPNPYQDIALRFSRFAERKAVFFRYSQAYVVMPGGFGTLDELFEILTLVQTGKVPPRPIVLVGKAFWSGLAEWINAQLLARGLISEGAVSLFAISDDEDEIVAYLSEHGLQTA"}}, "key": {"SgGouE [1]": {"molecular_target": "T1, SgGouE (Streptomyces graminearus, UniProt K4HPM3)", "T1 sequence (K4HPM3 1-246)": "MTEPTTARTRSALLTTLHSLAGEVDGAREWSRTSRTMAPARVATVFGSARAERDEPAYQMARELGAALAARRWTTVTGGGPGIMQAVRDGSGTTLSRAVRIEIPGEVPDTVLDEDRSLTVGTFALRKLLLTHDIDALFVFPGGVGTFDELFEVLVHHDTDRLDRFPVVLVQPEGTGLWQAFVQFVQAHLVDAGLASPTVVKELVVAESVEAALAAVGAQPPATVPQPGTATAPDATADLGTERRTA", "assay": "HPLC turnover assay", "type": "biochemical", "conditions": "50 mM Tris-HCl pH 8.0, 1 mM CMP, 1 mM MgCl2, 30 °C (cascade)"}, "SgGouE [2]": {"molecular_target": "T1, SgGouE", "assay": "HPLC turnover assay", "type": "biochemical"}, "CodA": {"molecular_target": "T2, CodA (Escherichia coli, UniProt P25524)", "T2 sequence (P25524 2-427)": "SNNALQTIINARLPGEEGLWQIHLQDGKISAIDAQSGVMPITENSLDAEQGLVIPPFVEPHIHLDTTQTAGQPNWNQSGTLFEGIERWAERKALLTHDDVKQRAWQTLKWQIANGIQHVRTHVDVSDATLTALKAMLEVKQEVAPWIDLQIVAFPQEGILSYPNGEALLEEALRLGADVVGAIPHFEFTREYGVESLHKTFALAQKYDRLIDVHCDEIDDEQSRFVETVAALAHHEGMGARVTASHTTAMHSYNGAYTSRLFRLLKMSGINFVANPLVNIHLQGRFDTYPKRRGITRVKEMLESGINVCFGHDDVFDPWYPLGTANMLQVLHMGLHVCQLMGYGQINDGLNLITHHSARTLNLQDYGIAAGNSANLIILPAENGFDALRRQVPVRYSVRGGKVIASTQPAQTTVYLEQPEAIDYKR", "assay": "HPLC, deamination in cascade", "type": "biochemical", "conditions": "50 mM Tris-HCl pH 8.0, 1 mM MgCl2, 30 °C"}, "PhoA": {"molecular_target": "PhoA (Escherichia coli, UniProt P00634)", "sequence (P00634 22-471)": "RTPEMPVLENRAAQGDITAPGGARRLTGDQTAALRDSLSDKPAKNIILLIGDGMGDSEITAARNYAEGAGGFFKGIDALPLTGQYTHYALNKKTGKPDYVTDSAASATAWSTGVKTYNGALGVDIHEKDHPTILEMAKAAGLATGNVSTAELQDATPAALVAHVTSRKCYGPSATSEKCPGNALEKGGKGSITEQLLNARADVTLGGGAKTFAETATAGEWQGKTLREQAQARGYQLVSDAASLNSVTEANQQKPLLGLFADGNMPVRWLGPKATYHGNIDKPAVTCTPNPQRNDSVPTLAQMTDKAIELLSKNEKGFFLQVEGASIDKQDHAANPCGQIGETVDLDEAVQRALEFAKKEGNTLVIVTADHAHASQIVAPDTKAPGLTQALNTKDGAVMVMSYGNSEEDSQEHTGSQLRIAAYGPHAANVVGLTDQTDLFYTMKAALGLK", "assay": "HPLC, dephosphorylation in cascade", "type": "biochemical", "conditions": "50 mM Tris-HCl pH 8.0, 1 mM MgCl2, 30 °C"}, "HDHD1": {"molecular_target": "HDHD1 (Homo sapiens, UniProt Q08623)", "sequence (Q08623 whole entry)": "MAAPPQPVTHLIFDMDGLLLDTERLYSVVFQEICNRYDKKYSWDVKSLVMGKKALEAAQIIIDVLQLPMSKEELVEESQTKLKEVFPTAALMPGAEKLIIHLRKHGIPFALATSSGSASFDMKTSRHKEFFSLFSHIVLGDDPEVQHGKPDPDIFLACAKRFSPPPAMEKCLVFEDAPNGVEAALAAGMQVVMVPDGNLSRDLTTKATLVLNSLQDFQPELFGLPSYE", "assay": "in vitro competition assay, dephosphorylation", "type": "biochemical", "conditions": "competition with UMP"}, "[3]": {"substrate": "O=c1ccn([C@@H]2O[C@H](COP(=O)(O)O)[C@@H](O)[C@H]2O)c(=O)[nH]1", "assay": "kinetic analysis of UMP hydrolysis", "type": "biochemical, Neisseria meningitidis"}}, "data": [{"molecule": "Nc1ccn([C@@H]2O[C@H](COP(=O)(O)O)[C@@H](O)[C@H]2O)c(=O)n1", "note": "[CMP]", "values": [{"measurement": "HPLC turnover assay", "setting": "SgGouE [1]", "result": "we found that SgGouE indicates the most superior performance"}]}, {"molecule": "O=c1ccn([C@@H]2O[C@H](COP(=O)(O)O)[C@@H](O)[C@H]2O)c(=O)[nH]1", "note": "[UMP]", "values": [{"measurement": "relative efficiency", "setting": "SgGouE [2]", "result": 50, "unit": "%"}]}, {"molecule": "Nc1cc[nH]c(=O)n1", "note": "[cytosine]", "values": [{"measurement": "HPLC, deamination in cascade", "setting": "CodA", "result": "cytosine can be easily deaminated by CodA (deaminase)"}]}, {"molecule": "O=c1[nH]cc([C@@H]2O[C@H](COP(=O)(O)O)[C@@H](O)[C@H]2O)c(=O)[nH]1", "note": "[ΨMP]", "values": [{"measurement": "HPLC, dephosphorylation in cascade", "setting": "PhoA", "result": "the phosphatase PhoA was utilized for the dephosphorylation of ΨMP for related assays"}, {"measurement": "in vitro competition assay, dephosphorylation", "setting": "HDHD1", "result": "HDHD1 has prominent specificity and activity against the latter substrate"}]}, {"molecule": "B1", "values": [{"measurement": "Km", "setting": "[3]", "result": "11.78 ± 0.81", "unit": "mM"}, {"measurement": "kcat", "setting": "[3]", "result": "81.90 ± 2.60", "unit": "s⁻¹"}]}]}
